Measured values: patent publication US11759455B2, “Substituted 1H-imidazo[4,5-b]pyridin-2(3H)-ones and their use as GLUN2B receptor modulators” (JANSSEN PHARMACEUTICA NV, priority 2016, dated 2023)
Like-named read-outs stand apart in the source and are kept apart here.

Target: T1, human GluN1/GluN2B NMDA receptors (Homo sapiens, UniProt Q13224)
T1 construct: expressed in transfected cells
Assay: Cell-based calcium flux (FLIPR) assay on cloned human NR1/NR2B ion channels expressed in mammalian cells (standard and HTS buffer variants);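 also: stable Tet-On inducible cell line, Ca2+ influx triggered by glutamate at about EC40 plus 10 µM glycine, fluorescent dye read-out over 5 min, normalized to control wells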

[1] = standard assay buffer (0.5 mM MgCl2 dye loading; 137 mM NaCl, 4 mM KCl assay buffer), human GluN1/GluN2B cells, read-out: NR2B IC50 (μM) standard assay
[2] = standard assay buffer (0.5 mM MgCl2 in dye loading buffer; 137 mM NaCl, 4 mM KCl in assay buffer), human GluN1/GluN2B, read-out: NR2B IC50 (μM) standard assay
[3] = HTS assay buffer (1.5 mM MgCl2 in dye loading buffer; 150 mM NaCl, 3 mM KCl in assay buffer), human GluN1/GluN2B, read-out: NR2B IC50 (μM) HTS assay

T1 sequence (Q13224 27-1484, other chains not shown): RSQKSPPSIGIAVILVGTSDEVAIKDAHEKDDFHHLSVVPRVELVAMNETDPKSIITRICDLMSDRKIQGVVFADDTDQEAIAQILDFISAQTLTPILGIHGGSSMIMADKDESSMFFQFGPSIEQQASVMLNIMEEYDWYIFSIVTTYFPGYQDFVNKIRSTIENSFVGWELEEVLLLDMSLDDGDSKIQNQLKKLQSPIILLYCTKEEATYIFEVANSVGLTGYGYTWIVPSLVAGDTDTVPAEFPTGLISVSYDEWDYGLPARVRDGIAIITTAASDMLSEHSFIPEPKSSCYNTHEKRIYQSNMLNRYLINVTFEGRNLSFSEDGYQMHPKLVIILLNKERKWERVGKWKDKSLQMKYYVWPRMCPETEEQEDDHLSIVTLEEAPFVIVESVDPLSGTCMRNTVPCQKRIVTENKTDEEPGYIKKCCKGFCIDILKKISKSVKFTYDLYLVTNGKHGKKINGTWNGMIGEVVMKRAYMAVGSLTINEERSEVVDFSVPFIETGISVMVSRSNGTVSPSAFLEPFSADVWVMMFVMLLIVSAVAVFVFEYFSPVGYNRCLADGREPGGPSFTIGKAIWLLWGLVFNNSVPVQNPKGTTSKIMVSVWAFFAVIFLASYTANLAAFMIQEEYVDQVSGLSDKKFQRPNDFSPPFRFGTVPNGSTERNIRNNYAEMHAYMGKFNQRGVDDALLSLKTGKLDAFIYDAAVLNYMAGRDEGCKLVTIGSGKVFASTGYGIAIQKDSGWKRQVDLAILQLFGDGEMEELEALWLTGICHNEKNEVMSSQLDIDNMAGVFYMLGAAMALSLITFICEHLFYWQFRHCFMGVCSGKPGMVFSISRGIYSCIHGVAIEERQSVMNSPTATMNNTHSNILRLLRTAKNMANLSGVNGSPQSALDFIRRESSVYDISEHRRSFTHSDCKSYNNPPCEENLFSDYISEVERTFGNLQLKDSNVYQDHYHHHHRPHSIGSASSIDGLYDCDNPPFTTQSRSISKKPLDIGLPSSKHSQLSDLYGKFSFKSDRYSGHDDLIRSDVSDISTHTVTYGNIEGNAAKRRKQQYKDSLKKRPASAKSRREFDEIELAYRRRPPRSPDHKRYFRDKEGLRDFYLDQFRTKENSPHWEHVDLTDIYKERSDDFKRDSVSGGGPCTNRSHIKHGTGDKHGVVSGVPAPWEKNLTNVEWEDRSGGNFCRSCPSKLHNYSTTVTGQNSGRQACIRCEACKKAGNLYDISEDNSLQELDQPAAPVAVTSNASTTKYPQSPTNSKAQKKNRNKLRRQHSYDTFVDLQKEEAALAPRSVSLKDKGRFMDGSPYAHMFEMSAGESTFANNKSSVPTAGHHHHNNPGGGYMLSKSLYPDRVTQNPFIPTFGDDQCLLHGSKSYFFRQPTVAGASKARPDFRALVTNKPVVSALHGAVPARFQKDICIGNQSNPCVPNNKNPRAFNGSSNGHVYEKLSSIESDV

SMILES | IC50 [1] | IC50 [2] | further results
O=c1[nH]c2ncc(-c3cc(F)cc(F)c3)cc2n1CCNCCO [Example 173, 6-(3,5-Difluorophenyl)-1-[2-(2-hydroxyethylamino)ethyl]-3H-imidazo[4,5-b]pyridin-2-one] | 4.26 µM |  | 
Cc1cc(Cn2c(=O)[nH]c3ncc(-c4ccc(F)cc4)cc32)nn1C [Example 16, 1-[(1,5-Dimethylpyrazol-3-yl)methyl]-6-(4-fluorophenyl)-3H-imidazo[4,5-b]pyridin-2-one] | 8.9 µM |  | 
Cn1c(=O)n(CC(=O)N2CC(F)(F)C2)c2cc(-c3cccc(C(F)(F)F)c3)cnc21 [Example 138, 1-[2-(3,3-difluoroazetidin-1-yl)-2-oxo-ethyl]-3-methyl-6-[3-(trifluoromethyl)phenyl]imidazo[4,5-b]pyridin-2-one] | 0.089 µM |  | 
COc1ccc(Cn2c(=O)[nH]c3ncc(-c4cccc(C(F)(F)F)c4)cc32)cc1F [Example 220, 1-[(3-Fluoro-4-methoxy-phenyl)methyl]-6-[3-(trifluoromethyl)phenyl]-3H-imidazo[4,5-b]pyridin-2-one] | 1.65 µM |  | 
Cc1cc(F)ccc1-c1cnc2[nH]c(=O)n(CCN3CC(F)C3)c2c1 [Example 187, 1-[2-(3-Fluoroazetidin-1-yl)ethyl]-6-(4-fluoro-2-methyl-phenyl)-3H-imidazo[4,5-b]pyridin-2-one] | 1.19 µM |  | 
CCNC(=O)Cn1c(=O)[nH]c2ncc(-c3ccc(F)cc3C)cc21 [Example 3, N-Ethyl-2-[6-(4-fluoro-2-methyl-phenyl)-2-oxo-3H-imidazo[4,5-b]pyridin-1-yl]acetamide] | 0.088 µM |  | 
COc1cccc(Cn2c(=O)[nH]c3ncc(-c4cccnc4)cc32)c1 [Example 506, 1-[(3-Methoxyphenyl)methyl]-6-(3-pyridyl)-3H-imidazo[4,5-b]pyridin-2-one] |  |  | IC50 [3]: > 29 µM
Cn1c(=O)n(Cc2cccnn2)c2cc(-c3ccc(C(F)(F)F)s3)cnc21 [Example 84, 3-Methyl-1-(pyridazin-3-ylmethyl)-6-[5-(trifluoromethyl)-2-thienyl]imidazo[4,5-b]pyridin-2-one] | 0.03 µM |  | 
Cc1nccc(Cn2c(=O)n(C)c3ncc(-c4cccc(C(F)(F)F)c4)cc32)n1 [Example 248, 3-Methyl-1-[(2-methylpyrimidin-4-yl)methyl]-6-[3-(trifluoromethyl)phenyl]imidazo[4,5-b]pyridin-2-one] | 2.05 µM |  | 
CC(C)c1ccc(Cn2c(=O)[nH]c3ncc(-c4ccc(Cl)cc4)cc32)cc1 [Example 511, 6-(4-Chlorophenyl)-1-[(4-isopropylphenyl)methyl]-3H-imidazo[4,5-b]pyridin-2-one] |  |  | IC50 [3]: > 29 µM
Cc1cccc(-c2cnc3[nH]c(=O)n(CCN4CC(F)C4)c3c2)c1C [Example 182, 6-(2,3-Dimethylphenyl)-1-[2-(3-fluoroazetidin-1-yl)ethyl]-3H-imidazo[4,5-b]pyridin-2-one] | 1.74 µM |  | 
O=C(Cn1c(=O)[nH]c2ncc(-c3cccc(C(F)(F)F)c3)cc21)N1CC(F)(F)C1 [Example 194, 1-[2-(3,3-Difluoroazetidin-1-yl)-2-oxo-ethyl]-6-[3-(trifluoromethyl)phenyl]-3H-imidazo[4,5-b]pyridin-2-one] | 0.047 µM |  | 
O=c1[nH]c2ncc(-c3cccc(C(F)(F)F)c3)cc2n1CCN1CC(C(F)(F)F)C1 [Example 166, 1-[2-[3-(Trifluoromethyl)azetidin-1-yl]ethyl]-6-[3-(trifluoromethyl)phenyl]-3H-imidazo[4,5-b]pyridin-2-one] | 3.48 µM |  | 
CN(C)C(=O)Cn1c(=O)n(C)c2ncc(-c3ccc(C4CC4)s3)cc21 [Example 110, 2-[6-(5-Cyclopropyl-2-thienyl)-3-methyl-2-oxo-imidazo[4,5-b]pyridin-1-yl]-N,N-dimethyl-acetamide] | 0.04 µM |  | 
Cc1cc(-c2cnc3[nH]c(=O)n(CCN4CCC4)c3c2)ccc1F [Example 156, 1-[2-(Azetidin-1-yl)ethyl]-6-(4-fluoro-3-methyl-phenyl)-3H-imidazo[4,5-b]pyridin-2-one] | 0.039 µM |  | 
CN(C)C(=O)Cn1c(=O)[nH]c2ncc(-c3ccc(C(F)(F)F)s3)cc21 [Example 26, N,N-Dimethyl-2-[2-oxo-6-(5-(trifluoromethyl)-2-thienyl]-3H-imidazo[4,5-b]pyridin-1-yl)acetamide] | 0.012 µM |  | 
Cn1c(=O)n(Cc2cccnc2)c2cc(-c3ccc(F)c(F)c3)cnc21 [Example 59, 6-(3,4-Difluorophenyl)-3-methyl-1-(3-pyridylmethyl)imidazo[4,5-b]pyridin-2-one] | 0.246 µM |  | 
Cc1c(F)ccc(-c2cnc3c(c2)n(Cc2ccncn2)c(=O)n3C)c1F [Example 72, 6-(2,4-Difluoro-3-methyl-phenyl)-3-methyl-1-(pyrimidin-4-ylmethyl)imidazo[4,5-b]pyridin-2-one] | 0.482 µM |  | 
Cc1cc(C)cc(-c2cnc3[nH]c(=O)n(Cc4cccc(F)c4)c3c2)c1 [Example 495, 6-(3,5-Dimethylphenyl)-1-[(3-fluorophenyl)methyl]-3H-imidazo[4,5-b]pyridin-2-one] |  |  | IC50 [3]: 2.81 µM

Continued, in another order:

IC50 [1] | IC50 [2] | SMILES | further results
0.027 µM |  | Cc1cccc(-c2cnc3[nH]c(=O)n(Cc4cccnc4)c3c2)c1 [Example 297, 6-(m-Tolyl)-1-(3-pyridylmethyl)-3H-imidazo[4,5-b]pyridin-2-one] | 
 | 0.653 µM | Cn1c(=O)n(Cc2cccnn2)c2cc(-c3cc(C(F)F)ccc3F)cnc21 [Example 385, 6-(5-(Difluoromethyl)-2-fluorophenyl)-3-methyl-1-(pyridazin-3-ylmethyl)-1,3-dihydro-2H-imidazo[4,5-b]pyridin-2-one] | 
 | 6.08 µM | CN(C)c1cccc(-c2cnc3[nH]c(=O)n(Cc4cccc(F)c4)c3c2)c1 [Example 500, 6-[3-(Dimethylamino)phenyl]-1-[(3-fluorophenyl)methyl]-3H-imidazo[4,5-b]pyridin-2-one] | 
> 10 µM |  | COc1ccc(Cn2c(=O)[nH]c3ncc(-c4cccc(C(F)(F)F)c4)cc32)nn1 [Example 252, 1-[(6-Methoxypyridazin-3-yl)methyl]-6-[3-(trifluoromethyl)phenyl]-3H-imidazo[4,5-b]pyridin-2-one] | 
 | 0.016 µM | Cn1c(=O)n(CC(=O)N2CC(F)C2)c2cc(-c3cccc(Cl)c3)cnc21 [Example 406, 6-(3-Chlorophenyl)-1-[2-(3-fluoroazetidin-1-yl)-2-oxo-ethyl]-3-methyl-imidazo[4,5-b]pyridin-2-one] | 
 | 0.044 µM | Cn1c(=O)n(Cc2cccnc2)c2cc(-c3ccc(F)c(Cl)c3)cnc21 [Example 355, 6-(3-Chloro-4-fluoro-phenyl)-3-methyl-1-(3-pyridylmethyl)imidazo[4,5-b]pyridin-2-one] | 
0.077 µM |  | O=c1[nH]c2ncc(-c3cccc(C(F)(F)F)c3)cc2n1Cc1cncc(F)c1 [Example 258, 1-[(5-Fluoro-3-pyridyl)methyl]-6-[3-(trifluoromethyl)phenyl]-3H-imidazo[4,5-b]pyridin-2-one] | 
 | 0.185 µM | Cn1c(=O)n(Cc2csnn2)c2cc(-c3cccc(C(F)(F)F)c3)cnc21 [Example 548, 3-Methyl-1-(thiadiazol-4-ylmethyl)-6-[3-(trifluoromethyl)phenyl]imidazo[4,5-b]pyridin-2-one] | 
 | 0.518 µM | Cn1c(=O)n(Cc2cncc(F)c2)c2cc(-c3cc(F)c(F)c(F)c3)cnc21 [Example 344, 1-[(5-Fluoro-3-pyridyl)methyl]-3-methyl-6-(3,4,5-trifluorophenyl)imidazo[4,5-b]pyridin-2-one] | 
 | 0.533 µM | Cc1nnc(Cn2c(=O)n(C)c3ncc(-c4ccc(C)s4)cc32)o1 [Example 554, 3-Methyl-1-[(5-methyl-1,3,4-oxadiazol-2-yl)methyl]-6-(5-methyl-2-thienyl)imidazo[4,5-b]pyridin-2-one] | 
0.023 µM |  | Cc1cc(-c2cnc3[nH]c(=O)n(Cc4cccnc4)c3c2)ccc1F [Example 294, 6-(4-Fluoro-3-methyl-phenyl)-1-(3-pyridylmethyl)-3H-imidazo[4,5-b]pyridin-2-one] | 
 | 0.15 µM | Cc1c(F)ccc(-c2cnc3c(c2)n(Cc2cnn(C)c2)c(=O)n3C)c1F [Example 572, 6-(2,4-Difluoro-3-methyl-phenyl)-3-methyl-1-[(1-methylpyrazol-4-yl)methyl]imidazo[4,5-b]pyridin-2-one] | 
 | 0.359 µM | O=C(Cn1c(=O)[nH]c2ncc(-c3ccc(F)c(Cl)c3)cc21)c1cccs1 [Example 464, 6-(3-Chloro-4-fluoro-phenyl)-1-[2-oxo-2-(2-thienyl)ethyl]-3H-imidazo[4,5-b]pyridin-2-one] | 
 | 0.19 µM | Cn1cc(Cn2c(=O)n(C)c3ncc(-c4cccc(C(F)(F)F)c4)cc32)cn1 [Example 551, 3-Methyl-1-[(1-methylpyrazol-4-yl)methyl]-6-[3-(trifluoromethyl)phenyl]imidazo[4,5-b]pyridin-2-one] | 
 | 0.412 µM | Cc1noc(Cn2c(=O)n(C)c3ncc(-c4ccc(C(F)(F)F)s4)cc32)n1 [Example 569, 3-Methyl-1-[(3-methyl-1,2,4-oxadiazol-5-yl)methyl]-6-[5-(trifluoromethyl)-2-thienyl]imidazo[4,5-b]pyridin-2-one] | 
 | 0.24 µM | O=C(Cn1c(=O)[nH]c2ncc(-c3ccc(OCCF)c(C(F)(F)F)c3)cc21)N1CCC1 [Example 538, 1-[2-(Azetidin-1-yl)-2-oxo-ethyl]-6-[4-(2-fluoroethoxy)-3-(trifluoromethyl)phenyl]-3H-imidazo[4,5-b]pyridin-2-one] | 
0.573 µM |  | Cn1c(=O)n(Cc2ncccn2)c2cc(-c3cccc(C(F)(F)F)c3)cnc21 [Example 261, 3-Methyl-1-(pyrimidin-2-ylmethyl)-6-[3-(trifluoromethyl)phenyl]imidazo[4,5-b]pyridin-2-one] | 
0.022 µM |  | O=c1[nH]c2ncc(-c3cccc(C(F)F)c3)cc2n1Cc1cccnc1 [Example 291, 6-[3-(Difluoromethyl)phenyl]-1-(3-pyridylmethyl)-3H-imidazo[4,5-b]pyridin-2-one] | 
